Measured values taken from patent US9815851B2, “Pyrrolo carboxamides as modulators of orphan nuclear receptor RAR-related orphan receptor-gamma (RORγ, NR1F3) activity and for the treatment of chronic inflammatory and autoimmune diseases” (PHENEX PHARMACEUTICALS AG, priority 2011, dated 2017).
Like-named read-outs stand apart in the source and are kept apart here.

Assays:
[1] = molecular target: T1, RORγ ligand binding domain (LBD) (Homo sapiens, UniProt P51449); test: TR-FRET Activity Assay (ligand sensing, RORγ-LBD / coactivator peptide interaction, LANCE); format: biochemical
T1 construct: made in house; host or cells: E. coli BL-21 (BL3), vector pDEST15
T1 sequence (P51449 269-508 limits assumed): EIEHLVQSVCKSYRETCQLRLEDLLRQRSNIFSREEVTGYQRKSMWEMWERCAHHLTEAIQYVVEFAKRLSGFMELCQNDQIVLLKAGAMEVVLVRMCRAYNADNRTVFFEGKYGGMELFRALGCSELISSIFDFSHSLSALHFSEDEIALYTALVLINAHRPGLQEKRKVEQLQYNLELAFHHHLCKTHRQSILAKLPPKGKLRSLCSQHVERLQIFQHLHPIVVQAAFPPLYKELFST

RORγ = molecular target: T2, RORγ (UniProt P51449); test: RORγ Gal4 Reporter Gene Assay in 293T cells (firefly and renilla luciferase); format: cell-based, human
T2 sequence (P51449 1-518): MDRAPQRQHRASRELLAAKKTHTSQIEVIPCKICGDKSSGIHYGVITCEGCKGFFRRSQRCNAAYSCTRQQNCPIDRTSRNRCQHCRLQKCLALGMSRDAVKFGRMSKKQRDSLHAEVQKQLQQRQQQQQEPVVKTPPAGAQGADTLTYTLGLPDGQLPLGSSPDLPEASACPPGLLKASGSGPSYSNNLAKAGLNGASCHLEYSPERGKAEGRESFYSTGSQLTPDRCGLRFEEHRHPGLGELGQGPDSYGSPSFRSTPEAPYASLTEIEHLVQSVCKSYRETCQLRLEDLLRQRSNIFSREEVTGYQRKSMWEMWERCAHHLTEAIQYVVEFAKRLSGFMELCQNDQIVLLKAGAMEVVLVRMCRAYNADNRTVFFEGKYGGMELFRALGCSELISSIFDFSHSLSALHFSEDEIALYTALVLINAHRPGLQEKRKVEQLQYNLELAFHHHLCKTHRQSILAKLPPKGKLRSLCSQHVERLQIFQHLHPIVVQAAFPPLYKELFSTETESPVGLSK

[2] = first value of the cell FRET/FF/REN, TR-FRET activity assay, read-out: pIC50 (FRET) (converted)
[3] = second value of the cell, Gal4 reporter gene assay in 293T cells, firefly luciferase
[4] = third value of the cell, Gal4 reporter gene assay in 293T cells, renilla normalised luciferase

SMILES | IC50 [1, 2] | pIC50 (FF) (RORγ; [3]) | pIC50 (REN) (RORγ; [4]) | IC50 [1] | pIC50 (FF) (RORγ) | pIC50 (REN) (RORγ)
CNC(=O)C(C)(C)CNC(=O)c1cc(-c2ccc(S(=O)(=O)NC(C)(C)C)c(C(F)(F)F)c2)n(CC2CCCCC2)c1C [17/204] | 794 nM | 6.7 | 6.8 | – | – | –
Cc1c(C(=O)NC2(C)CCOCC2)cc(-c2ccc(S(=O)(=O)NC(C)(C)C)c(C(C)(C)C)c2)n1CC1CCCCC1 [17/206] | – | – | – | 631 nM | 6.2/7.0/7.2 | 6.2/7.0/7.2
Cc1c(C(=O)NC2CC23CCOCC3)cc(-c2ccc(S(=O)(=O)NC(C)(C)C)c(C(C)(C)C)c2)n1CC1CCCCC1 (stereo not drawn) [17/207] | 501 nM | 7.9 | 8.0 | – | – | –
Cc1c(C(=O)NC2(C#N)CCOCC2)cc(-c2ccc(S(=O)(=O)NC(C)(C)C)c(C(C)(C)C)c2)n1CC1CCCCC1 [17/208] | – | – | – | 398 nM | 6.4/6.6/6.6 | 6.4/6.6/6.6
Cc1c(C(=O)NC2(C)CCOCC2)cc(-c2ccc(S(=O)(=O)NC(C)(C)C)c(C(F)(F)F)c2)n1CC1CCCCC1 [17/209] | – | – | – | 200 nM | 6.7/7.3/7.6 | 6.7/7.3/7.6
Cc1c(C(=O)NC2CCOCC2)cc(-c2ccc(S(=O)(=O)NC(C)(C)C)c(C(C)(C)C)c2)n1CC1CCCC1 [17/212] | – | – | – | 631 nM | 6.2/7.3/7.4 | 6.2/7.3/7.4
Cc1c(C(=O)NC2CCOCC2)cc(-c2ccc(S(=O)(=O)NC(C)(C)C)c(C(C)(C)C)c2)n1CC1CCC1 [17/213] | – | – | – | 631 nM | 6.2/7.1/7.2 | 6.2/7.1/7.2
Cc1c(C(=O)NC2CCOCC2)cc(-c2ccc(S(=O)(=O)NC(C)(C)C)c(C(F)(F)F)c2)n1S(=O)(=O)C1CCCCC1 [17/218] | 316 nM | 7.1 | 7.3 | – | – | –
Cc1c(C(=O)NC2CCOCC2)cc(-c2cc(Cl)cc(C(=O)NC(C)(C)C)c2)n1CC1CCCCC1 [17/219] | 501 nM | 6.9 | 7.0 | – | – | –
Cc1c(C(=O)N[C@H]2C[C@H](C(=O)O)C2)cc(-c2ccc(S(=O)(=O)NC(C)(C)C)c(C(F)(F)F)c2)n1CC1CCCCC1 [17/220] | 316 nM | 6.6 | 6.6 | – | – | –
Cc1c(C(=O)N[C@H]2CC[C@H](C(=O)O)CC2)cc(-c2ccc(S(=O)(=O)NC(C)(C)C)c(C(F)(F)F)c2)n1CC1CCCCC1 [17/223] | 398 nM | 7.1 | 7.2 | – | – | –
Cc1c(C(=O)N2CCCC(C)(C(=O)O)C2)cc(-c2ccc(S(=O)(=O)NC(C)(C)C)c(C(F)(F)F)c2)n1CC1CCCCC1 (stereo not drawn) [17/225] | 794 nM | 7.6 | 7.6 | – | – | –
Cc1c(C(=O)NC2CCOCC2)cc(-c2ccc(S(=O)(=O)NC(C)(C)C)c(C(C)C)c2)n1CC1CCCCC1 [17/226] | 316 nM | 8.2 | 8.2 | – | – | –
Cc1c(C(=O)NC2CCOCC2)cc(-c2ccc(S(=O)(=O)NC3(C)CC3)c(C(C)(C)C)c2)n1CC1CCCCC1 [17/227] | – | – | – | 501 nM | 6.3/8.1/8.1 | 6.3/8.1/8.1
Cc1c(C(=O)NC2CCOCC2)cc(-c2ccc(S(=O)(=O)NC(C)(C)C)c(C(F)(F)F)c2F)n1CC1CCCCC1 [17/231] | 251 nM | 7.5 | 7.7 | – | – | –
Cc1cc(-c2cc(C(=O)NC3CCOCC3)c(C)n2CC2CCCCC2)cc(C(F)(F)F)c1S(=O)(=O)NC(C)(C)C [17/232] | – | – | – | 794 nM | 6.1/6.8/7.0 | 6.1/6.8/7.0
Cc1cc(S(=O)(=O)NC(C)(C)C)c(C(F)(F)F)cc1-c1cc(C(=O)NC2CCOCC2)c(C)n1CC1CCCCC1 [17/233] | – | – | – | 1580 nM | 5.8/6.5/6.5 | 5.8/6.5/6.5
Cc1c(C(=O)NC2CCOCC2)cc(-c2ccc(S(=O)(=O)NC(C)(C)C)cc2)n1CC1CCCCC1 [17/237] | 1260 nM | 6.5 | 6.5 | – | – | –

Continued, in another order:

IC50 [1, 2] | pIC50 (FF) (RORγ; [3]) | pIC50 (REN) (RORγ; [4]) | SMILES | IC50 [1] | pIC50 (FF) (RORγ) | pIC50 (REN) (RORγ)
501 nM | 6.9 | 6.9 | Cc1c(C(=O)NCC(C)(C)C(=O)O)cc(-c2ccc(S(=O)(=O)NC(C)(C)C)c(C(F)(F)F)c2)n1CC1CCCCC1 [17/200] | – | – | –
794 nM | 5.7 | 5.7 | Cc1c(C(=O)NCC2(C(=O)O)CCOCC2)cc(-c2ccc(S(=O)(=O)NC(C)(C)C)c(C(F)(F)F)c2)n1CC1CCCCC1 [17/201] | – | – | –
316 nM | 7.7 | 7.7 | Cc1c(C(=O)NCC(C)(C)C(N)=O)cc(-c2ccc(S(=O)(=O)NC(C)(C)C)c(C(F)(F)F)c2)n1CC1CCCCC1 [17/202] | – | – | –
501 nM | 7.8 | 7.8 | Cc1c(C(=O)NCC2(C(N)=O)CCOCC2)cc(-c2ccc(S(=O)(=O)NC(C)(C)C)c(C(F)(F)F)c2)n1CC1CCCCC1 [17/203] | – | – | –
794 nM | 6.9 | 7.0 | CNC(=O)C1(CNC(=O)c2cc(-c3ccc(S(=O)(=O)NC(C)(C)C)c(C(F)(F)F)c3)n(CC3CCCCC3)c2C)CCOCC1 [17/205] | – | – | –
158 nM | 7.9 | 8.1 | Cc1c(C(=O)NC2CC23CCOCC3)cc(-c2ccc(S(=O)(=O)NC(C)(C)C)c(C(F)(F)F)c2)n1CC1CCCCC1 (stereo not drawn) [17/210] | – | – | –
501 nM | 8.0 | 8.0 | Cc1c(C(=O)N2CC3(CCOCC3)C2)cc(-c2ccc(S(=O)(=O)NC(C)(C)C)c(C(F)(F)F)c2)n1CC1CCCCC1 [17/211] | – | – | –
251 nM | 7.5 | 7.5 | Cc1c(C(=O)NC2CCOCC2)cc(-c2ccc(S(=O)(=O)NC(C)(C)C)c(C(F)(F)F)c2)n1CC1CCCC1 [17/214] | – | – | –
316 nM | 7.5 | 7.3 | Cc1c(C(=O)NC2CCOCC2)cc(-c2ccc(S(=O)(=O)NC(C)(C)C)c(C(F)(F)F)c2)n1CC1CCC1 [17/215] | – | – | –
200 nM | 7.8 | 7.8 | CCC(C)(C)NS(=O)(=O)c1ccc(-c2cc(C(=O)NC3CCOCC3)c(C)n2CC2CCCC2)cc1C(F)(F)F [17/216] | – | – | –
126 nM | 7.6 | 7.7 | CCC(C)(C)NS(=O)(=O)c1ccc(-c2cc(C(=O)NC3CCOCC3)c(C)n2CC2CCC2)cc1C(F)(F)F [17/217] | – | – | –
2000 nM | 7.1 | 7.1 | Cc1c(C(=O)N[C@H]2C[C@H](C(=O)O)C2)cc(-c2ccc(S(=O)(=O)NC(C)(C)C)c(C(C)(C)C)c2)n1CC1CCCCC1 [17/221] | – | – | –
631 nM | 7.4 | 7.5 | Cc1c(C(=O)NCCC(C)(C)C(=O)O)cc(-c2ccc(S(=O)(=O)NC(C)(C)C)c(C(F)(F)F)c2)n1CC1CCCCC1 [17/222] | – | – | –
794 nM | 7.1 | 7.2 | Cc1c(C(=O)N2CCC(C)(C(=O)O)CC2)cc(-c2ccc(S(=O)(=O)NC(C)(C)C)c(C(F)(F)F)c2)n1CC1CCCCC1 [17/224] | – | – | –
398 nM | 7.7 | 7.7 | Cc1c(C(=O)NC2CCOCC2)cc(-c2ccc(S(=O)(=O)NC3CCC3)c(C(C)(C)C)c2)n1CC1CCCCC1 [17/228] | – | – | –
631 nM | 7.2 | 7.3 | Cc1c(C(=O)NC2CCOCC2)cc(-c2cc(F)c(S(=O)(=O)NC(C)(C)C)c(C(F)(F)F)c2)n1CC1CCCCC1 [17/229] | – | – | –
251 nM | 7.5 | 7.6 | Cc1c(C(=O)NC2CCOCC2)cc(-c2cc(C(F)(F)F)c(S(=O)(=O)NC(C)(C)C)cc2F)n1CC1CCCCC1 [17/230] | – | – | –
200 nM | 7.1 | 7.2 | Cc1c(C(=O)NC2CCOCC2)cc(-c2ccc(S(=O)(=O)NC(C)(C)C)c(Cl)c2)n1CC1CCCCC1 [17/234] | – | – | –
200 nM | 7.6 | 7.6 | Cc1c(C(=O)NC2CCOCC2)cc(-c2cc(Cl)c(S(=O)(=O)NC(C)(C)C)c(Cl)c2)n1CC1CCCCC1 [17/235] | – | – | –
631 nM | 8.1 | 8.2 | Cc1c(C(=O)NC2CCOCC2)cc(-c2ccc(S(=O)(=O)NC(C)(C)C)c3ccccc23)n1CC1CCCCC1 [17/236] | – | – | –
1000 nM | 6.9 | 6.7 | Cc1c(C(=O)NC2CCOCC2)cc(-c2ccc(S(=O)(=O)NC(C)(C)C)c(F)c2)n1CC1CCCCC1 [17/238] | – | – | –
1000 nM | 7.9 | 8.1 | Cc1c(C(=O)NCC2(O)CCOCC2)cc(-c2ccc(S(=O)(=O)NC(C)(C)C)c3ccccc23)n1CC1CCCCC1 [17/239] | – | – | –
